Several values for one entry are separate records, joined by “and”; a condition that tells them apart may be missing. Identical values can stand only once. Activity calls are given as the source filed them.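 How the source made its calls: active means compounds giving half or more protection of infected cells from virus-caused growth loss, again on retest; inactive means the rest.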 Where a SMILES comes first, the peptide text is derived from it. [ ]: non-standard residue; d: D form. The star is where a group is joined. NMeF = CN[CH](Cc1ccccc1)C(=O)O; NMeV = CN[CH](C(=O)O)C(C)C; Boc = CC(C)(C)OC(=O)*; OBn = c1ccc(CO*)cc1
Tested on: CEM cells HIV-1 protection, formazan growth assay
Experiment: NCI AIDS Antiviral Assay
Conditions: for IC50: measured here: growth of uninfected CEM cells
In short: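 Five concentrations of each compound were applied to infected and uninfected human CEM cells. Protection from HIV-1 was judged from growth measured with a soluble formazan assay.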

| Compound | EC50 | IC50 | outcome |
| --- | --- | --- | --- |
| C/C(=C\c1ccccn1)c1ccccn1 | > 200 µM | > 200 µM |  |
| NC(=O)NC(S(=O)(=O)O)S(=O)(=O)O |  |  | inactive |
| CCO[C@@H]1C2C=CC(C2)[C@H]1[N+](=O)[O-] (stereo partly drawn) | > 141 µM | > 141 µM |  |
| CN(C)CCCN1C(=S)N(CCCN(C)C)c2c3ccccc3nc3c([N+](=O)[O-])ccc1c23 | 0.407 µM | 1.07 µM |  |
| Clc1ccc(C2=NOC(C3CCCCC3)C2)cc1 (stereo not drawn) | > 38 µM | > 38 µM |  |
| C1=C2CN3CCC45c6ccccc6N6CCC(OC1)C(C2CC34)C65 (stereo not drawn) | > 776 µM | 302 µM |  |
| COC1/C=C/OC2(C)Oc3c(C)c(O)c4c(O)c(c(C=Nc5cccc(C)c5)c(O)c4c3C2=O)NC(=O)C(C)=C/C=C/C(C)C(O)C(C)C(O)C(C)C(OC(C)=O)C1C (stereo not drawn) | > 174 µM | 28.8 µM |  |
| COC(=O)/C=C1/N=C(N(C)/N=C/c2ccccc2)NC1=O | > 200 µM | > 200 µM |  |
| COS(=O)(=O)OCCC(NC(=O)OCc1ccccc1)C(=O)OCc1ccccc1 (stereo not drawn) | > 83.2 µM | > 83.2 µM |  |
| COc1c(CC(C)=O)ccc2c1C(=O)c1ccc(C=O)c(OC(C)=O)c1C2=O |  |  | inactive |
| O=C(CCCC(=O)N/N=C/c1ccc(O)c(O)c1)N/N=C\c1ccc(O)c(O)c1 | > 200 µM | 29.5 µM |  |
| CN(C)C(=O)ON=C1c2ccccc2-c2ccccc21 | > 200 µM | 28.8 µM |  |
| CCOC(=O)c1sc2nc(SC)nc3c2c1NCN3C | > 200 µM | > 200 µM |  |
| COc1cc2c(cc1Oc1ccc(OC)c3c1CC1c4c(cc(OC)c(OC)c4-3)CCN1C)CC1c3c(cc(OC)c(OC)c3-2)CCN1C (stereo not drawn) |  |  | inactive |
| CCCCCC1OC1C/C=C\CCCCCCCC(=O)OCC(O)COC(=O)CCCCCCC/C=C\CC1OC1CCCCC (stereo not drawn) | > 200 µM | > 200 µM |  |
| O=C1c2ccccc2-c2nc3ccccc3nc21 | > 6.17 µM | > 6.17 µM |  |
| Nc1nc(Cl)cc(NCCC2(CO)CCC2)n1 | > 200 µM | > 200 µM |  |
| O=[N+]([O-])c1cc(C(F)(F)F)cc([N+](=O)[O-])c1CCl |  |  | inactive |
| O=C(O)C(O)C(O)C(=O)O (stereo not drawn) | > 200 µM | > 200 µM |  |
| Cc1cc(NS(=O)(=O)c2ccc(Nc3c4ccccc4nc4c(C(=O)N5CCN(CCO)CC5)cccc34)cc2)no1 | > 38 µM | > 38 µM |  |

| Compound | EC50 | IC50 | outcome |
| --- | --- | --- | --- |
| COC(=O)C(Cc1nc2ccccc2[nH]c1=O)C(=O)C(=O)Nc1cc(C(F)(F)F)ccc1Cl (stereo not drawn) | > 74.1 µM | 7.41 µM |  |
| CC(C)C(NC(=O)OC(C)(C)C)C(=O)N(C)C(Cc1ccccc1)C(=O)N(C)C(C(=O)OCc1ccccc1)C(C)C (stereo not drawn) (Boc-Val-[NMeF]-[NMeV]-OBn; configuration not given here) | > 200 µM | 81.3 µM and 110 µM |  |
| CCOC(=O)/C=C/n1c2ccccc2c(=O)c2ccccc21 | > 9.33 µM | > 9.33 µM |  |
| CCCCCC[N+]1(C)CC2C3C=CC(C3)C2C1 (stereo not drawn) | > 245 µM | > 100 µM |  |
| CCC1(O)C(=O)OCc2c1cc1n(c2=O)Cc2cc3ccc(CO)cc3nc2-1 (stereo not drawn) | > 10 µM | 1.51 µM |  |
| C/C(=N\N=C(N)N)C(CN1CCCCC1)C(c1ccccc1)c1c(O)c2ccccc2oc1=O (stereo not drawn) | > 52.5 µM | > 52.5 µM |  |
| C[P+]1(CCc2ccc(Cl)cc2)CC=CC1 |  |  | inactive |
| CC(C)(C)[Si](C)(C)OCC1OC(n2cnc3c(=O)[nH]c(NC(=O)c4ccccc4)nc32)C(O[Si](C)(C)C(C)(C)C)C1O[Si](C)(C)C(C)(C)C (stereo not drawn) | > 200 µM | 9.12 µM |  |
| Nc1ccc(C(=O)N/C(=C\c2cccc([N+](=O)[O-])c2)c2nc3ccc(Cl)cc3[nH]2)cc1 |  |  | inactive |
| N#CC1(c2ccccc2)C(c2ccccc2)CC(O)(c2ccccc2)C(C(=O)c2ccccc2)C1c1ccccc1 (stereo not drawn) | > 100 µM | 15.1 µM |  |
| Cc1cccc2[nH]c3cc(O)cc(O)c3c(=O)c12 | > 200 µM | 10.5 µM |  |
| CC(=O)OCC(OC(C)=O)C(OC(C)=O)C(OC(C)=O)C(C=NN(C(C)=O)S(=O)(=O)c1ccc(/C=C2\NC(=O)NC2=O)cc1)OC(C)=O (stereo not drawn) | > 200 µM | 87.1 µM and 117 µM |  |
| Cc1cn(C2CC(N)C(C(=O)NCC(=O)O)O2)c(=O)[nH]c1=O (stereo not drawn) | > 200 µM | > 200 µM |  |
| COC(=O)/C=C/c1cnc2c(c1)oc(=O)n2CCc1ccccn1 | > 200 µM | 24 µM |  |
| O=S(=O)(c1ccc(NC(=S)Nc2ccccc2)cc1)c1ccc(NC(=S)Nc2ccccc2)cc1 | > 200 µM | > 200 µM |  |
| COC(=O)[C@H](CCSC)NCc1cc(N(C)C)cc(CN[C@@H](CCSC)C(=O)OC)n1 | > 200 µM | > 200 µM |  |
| C=C[C@@H](C)[C@]1(C(=O)OC)CCCC12OCCO2 | > 282 µM | > 282 µM |  |
| CC(C)(C)C(=O)Oc1ccc(/C=C/C(=O)c2ccc(OC(=O)C(C)(C)C)cc2)cc1 | > 200 µM | 38 µM |  |
| CNC(=O)CCC(NC(C)=O)C(=O)NC(Cc1ccc(NC(=O)CCCCC(C)=O)cc1)C(=O)NC(CCC(=O)NC)C(=O)NC (stereo not drawn) | > 200 µM | > 200 µM |  |
| Brc1c(C#CCC2CCCCC2)ccc(C#CCC2CCCCC2)c1Br | > 100 µM | > 100 µM |  |

| Compound | EC50 | IC50 | outcome |
| --- | --- | --- | --- |
| O=C1/C(=C/c2ccc(Cl)cc2)Oc2cc(O)ccc21 | > 200 µM | 37.2 µM |  |
| CC[C@]1(O)C[C@H]2CN(CCc3c([nH]c4ccccc34)[C@@](C(=O)OC)(c3cc4c(cc3OC)N(C)[C@H]3[C@@](O)(C(=O)OC)[C@H](OC(C)=O)[C@]5(CC)C=CCN6CC[C@]43[C@@H]65)C2)C1 | > 0.0302 µM | 0.000355 µM |  |
| CC(C)=C[C@@H]1C[C@H](n2cc(C)c(=O)[nH]c2=O)ON1CCO | > 200 µM | > 200 µM |  |
| CSCCCNC(=O)c1csc(-c2csc(CCNC(=O)CNC(=O)CNC(=O)OC(C)(C)C)n2)n1 | > 447 µM | 214 µM |  |
| O=C(/C=C/c1ccc2c(c1)OCO2)c1ccc(O)cc1 | > 200 µM | 29.5 µM |  |
| CCN(CC)CCNC(=O)c1nn(C)c(=S)[nH]c1=S |  |  | inactive |
| Nc1ccn(C2SC(CO)CC2F)c(=O)n1 (stereo not drawn) | > 25.1 µM | > 25.1 µM |  |
| Cc1nc(C(N)=S)sc1C(=O)CC(=O)C(=O)Nc1nc2ccccc2[nH]1 | > 93.3 µM | > 93.3 µM |  |
| O=C(NC12CC3CC(CC(C3)C1)C2)C(=O)c1c[nH]c2ccc(Br)cc12 | > 200 µM | 25.7 µM |  |
| CNC1C(OC2C(OC3C(O)C(O)C(N=C(N)N)C(O)C3N=C(N)N)OC(C)C2(O)C=O)OC(CO)C(OC2OC(CO)C(O)C(O)C2O)C1O (stereo not drawn) |  |  | inactive |
| CC1C(O)Oc2cc3c(cc2C1c1ccccc1O)OCO3 (stereo not drawn) | > 200 µM | 35.5 µM |  |
| CN(C)c1ccc(C2SCC(=O)N2NS(=O)(=O)c2cccc(C(=O)O)c2)cc1 (stereo not drawn) | > 200 µM | 79.4 µM |  |
| O=Cc1[nH]c(=O)[nH]c(=O)c1CCl | > 200 µM | 35.5 µM |  |
| CC1(C)OC(=O)C(=Cc2ccccc2F)C(=O)O1 | > 380 µM | 70.8 µM |  |
| OC(CC(CC(O)(C(F)(F)Cl)C(F)(F)Cl)=NNc1ccccc1)(C(F)(F)Cl)C(F)(F)Cl | > 200 µM | 2.14 µM |  |
| O=S(=O)(F)c1cc(Cl)ccc1C[P+](c1ccccc1)(c1ccccc1)c1ccccc1 | > 200 µM | 64.6 µM |  |
| N#C/C(=C\c1ccc(Br)cc1)C(=O)c1ccccc1 | > 95.5 µM | 67.6 µM |  |
| Cc1cc2nc3n[nH]c(N)c3nc2cc1C | > 200 µM | > 200 µM |  |
